According to patent US20250163036A1, “DIPEPTIDYL PEPTIDASE 1 INHIBITOR POLYMORPH, PREPARATION METHOD AND USE THEREFOR” (HAISCO PHARMACEUTICALS PTE. LTD., priority 2022, published 2025):
Values belong to the compound of their own block, whether it stands above or below them.

Columns and labels:
[1] = Pharmacokinetic test in rats; assay type: in vivo, SD rats; conditions: rat, intragastric administration 3 mg/kg
Method: 1.1 Experimental animals: male SD rats, about 220 g, 6-8 weeks old, 6 rats/compound. Purchased from Chengdu Ddossy Experimental Animals Co., Ltd.
1.2 Experimental design: on the day of the experiment, 6 SD rats were randomly grouped according to their body weights. The animals were fasted with water available for 12 to 14 h one day before the administration and were fed 4 h after the administration.
Vehicle for intravenous administration: 5% DMA+5% Solutol+90% Saline; vehicle for intragastric administration: 0.5% MC; control compound INS1007, namely compound 2 in patent WO 2015110826A1, was prepared with reference to the method of the patent.
Before and after the administration, 0.1 ml of blood was taken from the orbit of the animals under isoflurane anesthesia and placed in an EDTAK2 centrifuge tube. The blood was centrifuged at 5000 rpm and 4° C. for 10 min to collect the plasma. Blood sampling time points for the intravenous administration group: 0, 5 min, 15 min, 30 min, 1 h, 2 h, 4 h, 6 h, 8 h, and 24 h; and blood sampling time points for the intragastric administration group: 0, 5 min, 15 min, 30 min, 1 h, 2 h, 4 h, 6 h, 8 h, and 24 h. Before analysis and detection, all samples were stored at −80° C.

[2] = Stability, long-term experiment 3; assay type: physicochemical; conditions: 2° C.-8° C.
Method: (§1) The compounds used in this experiment were obtained from Example 4. Examination conditions: 2° C.-8° C. Packaging: the inner packaging material is a double-layer medicinal low-density polyethylene bag, and the outer packaging material is a polyester/aluminum/polyethylene medicinal composite bag. In particular, the analysis method of purity is as follows: [table]

[3] = Variable-temperature / heating XRPD test; assay type: physicochemical
Method: (initial temperature). […] In order to study the TGA weight loss of the crystal form B, a variable-temperature XRPD test was performed. […] (some diffraction peaks shifted at 120° C., and it is speculated that the shift may be caused by lattice expansion at high temperature). Therefore, it is speculated that the free base crystal form B is an anhydrous crystal form.
(peak temperatures). The sample was heated to 120° C. and cooled to room temperature, and then an XRPD test was performed. […] Based on the fact of crystal transformation of the sample upon heating in combination with the stepwise weight loss of the TGA, it is speculated that the crystal form C is a monohydrate.

[4] = Solid stability without protection (XRPD, UPLC); assay type: physicochemical
Method: For the compounds used in this experiment, the crystal form B was obtained from Example 3, and the crystal form C was obtained from Example 5
The crystal forms B and C were placed at 25° C./60% RH and 40° C./75% RH without any protection, and then the physical and chemical stabilities thereof were tested by XRPD and UPLC, respectively.

[5] = Stability, accelerated experiment; assay type: physicochemical; conditions: 40° C.±2° C., 75% RH±5% RH
Method: as §1, with “40° C.±2° C., 75% RH±5% RH.” for “2° C.-8° C.”

[6] = Stability, long-term experiment 1; assay type: physicochemical; conditions: 25° C.±2° C., 60% RH±5% RH
Method: as §1, with “25° C.±2° C., 60% RH±5% RH.” for “2° C.-8° C.”

[7] = Stability, long-term experiment 2; assay type: physicochemical; conditions: 30° C.±2° C., 65% RH±5% RH
Method: as §1, with “30° C.±2° C., 65% RH±5% RH.” for “2° C.-8° C.”

[8] = Hygroscopicity by dynamic vapor sorption (DVS); assay type: physicochemical; conditions: 25° C./80% RH
Method: The hygroscopicity of the crystal forms B and C was evaluated by a dynamic vapor sorption (DVS) instrument. The test collected the percentage change in the mass of the samples when the humidity changed (60% RH-95% RH-0% RH-95% RH or 0% RH-95% RH-0% RH) at a constant temperature of 25° C., wherein for the crystal form C, the test started at ambient humidity (about 60% RH), and for the crystal form B, the test started at 0% relative humidity (0% RH). The test results are shown in FIGS. 12 and 13, respectively.

F [1]: 88.1%
SMILES: Cn1c(=O)oc2ccc(-c3ccc(C[C@@H](C#N)NC(=O)[C@@H]4CNCCCO4)cc3)cc21 [INS1007, reference compound]

F [1]: >100%
SMILES: Cn1c(=O)oc2ccc(-c3ccc(C[C@@H](C#N)NC(=O)[C@@H]4CNCCCO4)c(F)c3)cc21 [Compound I, (S)—N—((S)-1-cyano-2-(2-fluoro-4-(3-methyl-2-oxo-2,3-dihydrobenzo[d]oxazol-5-yl)phenyl)ethyl)-1,4-oxazepane-2-carboxamide]

Content ([2]; month 0): 100.5% | Crystal form ([2]; month 0): form B | Moisture ([2]; month 0): 0.2% | Purity ([2]; month 0): 99.93% | Content ([2]; month 3): 100.5% | Crystal form ([2]; month 3): form B | Moisture ([2]; month 3): 0.3% | Purity ([2]; month 3): 99.87% | Content ([2]; month 6): 100.0% | Crystal form ([2]; month 6): form B | Moisture ([2]; month 6): 0.3% | Purity ([2]; month 6): 99.89% | Content ([2]; month 9): 101.6% | Crystal form ([2]; month 9): form B | Moisture ([2]; month 9): 0.2% | Purity ([2]; month 9): 99.89% | Content ([2]; month 12): 101.0% | Crystal form ([2]; month 12): form B | Moisture ([2]; month 12): 0.2% | Purity ([2]; month 12): 99.89% | Crystal form change in variable-temperature XRPD ([3]; purged with nitrogen for 20 minutes, heated to 120° C., or cooled to 30° C.): did not change | Crystal form change ([4]; 25° C./60% RH, 1 month): No | Purity ([4]; 25° C./60% RH, 1 month): 99.76 | Crystal form change ([4]; 25° C./60% RH, 1 week): No | Purity ([4]; 25° C./60% RH, 1 week): 99.74 | Purity ([4]; 25° C./60% RH, 3 weeks): 99.74 | Crystal form change ([4]; 40° C./75% RH, 1 month): No | Purity ([4]; 40° C./75% RH, 1 month): 99.63 | Crystal form change ([4]; 40° C./75% RH, 1 week): No | Purity ([4]; 40° C./75% RH, 1 week): 99.65 | Purity ([4]; 40° C./75% RH, 3 weeks): 99.57 | Purity ([4]; initial value): 99.86 | Content ([5]; month 0): 100.5% | Crystal form ([5]; month 0): form B | Moisture ([5]; month 0): 0.2% | Purity ([5]; month 0): 99.93% | Content ([5]; month 1): 100.4% | Crystal form ([5]; month 1): form B | Moisture ([5]; month 1): 0.3% | Purity ([5]; month 1): 99.87% | Content ([5]; month 2): 101.1% | Crystal form ([5]; month 2): form B | Moisture ([5]; month 2): 0.2% | Purity ([5]; month 2): 99.88% | Content ([5]; month 3): 100.1% | Crystal form ([5]; month 3): form B | Moisture ([5]; month 3): 0.2% | Purity ([5]; month 3): 99.87% | Content ([5]; month 6): 101.3% | Crystal form ([5]; month 6): form B | Moisture ([5]; month 6): 0.2% | Purity ([5]; month 6): 99.88% | Content ([6]; month 0): 100.5% | Crystal form ([6]; month 0): form B | Moisture ([6]; month 0): 0.2% | Purity ([6]; month 0): 99.93% | Content ([6]; month 3): 100.6% | Crystal form ([6]; month 3): form B | Moisture ([6]; month 3): 0.3% | Purity ([6]; month 3): 99.87% | Content ([6]; month 6): 100.7% | Crystal form ([6]; month 6): form B | Moisture ([6]; month 6): 0.2% | Purity ([6]; month 6): 99.90% | Content ([6]; month 9): 101.6% | Crystal form ([6]; month 9): form B | Moisture ([6]; month 9): 0.1% | Purity ([6]; month 9): 99.89% | Content ([6]; month 12): 99.5% | Crystal form ([6]; month 12): form B | Moisture ([6]; month 12): 0.2% | Purity ([6]; month 12): 99.88% | Content ([7]; month 0): 100.5% | Crystal form ([7]; month 0): form B | Moisture ([7]; month 0): 0.2% | Purity ([7]; month 0): 99.93% | Content ([7]; month 3): 100.6% | Crystal form ([7]; month 3): form B | Moisture ([7]; month 3): 0.3% | Purity ([7]; month 3): 99.87% | Content ([7]; month 6): 101.6% | Crystal form ([7]; month 6): form B | Moisture ([7]; month 6): 0.2% | Purity ([7]; month 6): 99.90% | Content ([7]; month 9): 100.7% | Crystal form ([7]; month 9): form B | Moisture ([7]; month 9): 0.1% | Purity ([7]; month 9): 99.90% | Content ([7]; month 12): 99.2% | Crystal form ([7]; month 12): form B | Moisture ([7]; month 12): 0.2% | Purity ([7]; month 12): 99.89% | Moisture sorption [8]: 0.19%
SMILES: Cn1c(=O)oc2ccc(-c3ccc(C[C@@H](C#N)NC(=O)[C@@H]4CNCCCO4)c(F)c3)cc21 [Crystal form B]

Crystal form change upon heating (XRPD) ([3]; heated to 120° C. and cooled to room temperature): transformed into the crystal form B | Crystal form change ([4]; 25° C./60% RH, 1 week): No | Purity ([4]; 25° C./60% RH, 1 week): 99.70 | Crystal form change ([4]; 40° C./75% RH, 1 week): No | Purity ([4]; 40° C./75% RH, 1 week): 99.71 | Purity ([4]; initial value): 99.87 | Moisture sorption [8]: 0.97%
SMILES: Cn1c(=O)oc2ccc(-c3ccc(C[C@@H](C#N)NC(=O)[C@@H]4CNCCCO4)c(F)c3)cc21 [Crystal form C]
